Drawing on ChEMBL document CHEMBL1139242, “Peptide deformylase inhibitors of Mycobacterium tuberculosis: synthesis, structural investigations, and biological results” (Bioorg Med Chem Lett, 2008), this text covers MIC and IC50 for 16 compounds.

For experiment [1], the system named is Mycobacterium tuberculosis. Put plainly: Antitubercular activity against Mycobacterium tuberculosis H37Rv after 14 days by turbidimetric assay. Format: functional. Conditions: 336 h.
For another experiment, the target named is T1, Peptide deformylase (Mycobacterium tuberculosis, UniProt P9WIJ3).
T1 sequence (P9WIJ3 whole entry): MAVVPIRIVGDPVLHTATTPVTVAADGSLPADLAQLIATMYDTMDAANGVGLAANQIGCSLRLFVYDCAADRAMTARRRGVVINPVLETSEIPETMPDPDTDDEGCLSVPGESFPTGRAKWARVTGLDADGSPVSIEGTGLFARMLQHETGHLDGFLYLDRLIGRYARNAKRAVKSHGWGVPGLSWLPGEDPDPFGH
As to the kind of experiment: Inhibition of Mycobacterium tuberculosis peptide deformylase expressed in Escherichia coli M15(pREp4) by microplate assay.

≈ marks a conversion by molar mass, not a printed value.

With `CCCC[C@H](CN(O)C=O)C(=O)N1CCC[C@H]1c1nc2ccccc2[nH]1`, the MIC in experiment [1] was 0.1 µg/mL (≈ 0.279 µM). The compound further showed an IC50 on Peptide deformylase of 10 nM.

Compound `O=CN(O)C[C@@H](CC1CC1)C(=O)N1CCC[C@H]1c1nc2ccccc2o1` gave a minimal inhibitory concentration (MIC) in experiment [1] of 0.2 µg/mL (≈ 0.56 µM). Besides, the IC50 on Peptide deformylase was 21 nM.

Take `CCCC[C@H](CC(=O)O)C(=O)N1CCC[C@H]1c1nc2ccccc2o1`: at Peptide deformylase, the IC50 was determined as 803 nM.

On to `CCCC[C@H](C(=O)NO)C(=O)N1CCC[C@H]1c1nc2ccccc2[nH]1`, for which half-maximal inhibition on Peptide deformylase (IC50) required 18 nM. Compared with the last compound, the IC50 is about 45-fold lower.

The compound `CCCC[C@H](CN(O)C=O)C(=O)N1CCC[C@H]1C(=O)Nc1ccccn1` registered a minimal inhibitory concentration (MIC) in experiment [1] of 0.2 µg/mL (≈ 0.552 µM).

The compound `CCCCC[C@H](CN(O)C=O)C(=O)N1CCC[C@H]1c1nc2ccccc2o1` showed an IC50 against Peptide deformylase of 13 nM.

`CCC[C@H](CN(O)C=O)C(=O)N1CCC[C@H]1c1nc2ccccc2o1` gave a 50% inhibitory concentration (IC50) against Peptide deformylase of 28 nM.

For `O=CN(O)C[C@@H](Cc1ccccc1)C(=O)N1CCC[C@H]1c1nc2ccccc2[nH]1`, the half-inhibitory concentration (IC50) against Peptide deformylase was found to be 68 nM.

In the case of `CCC[C@H](CN(O)C=O)C(=O)N1CCC[C@H]1c1nc2ccccc2[nH]1`, the half-inhibitory concentration (IC50) at Peptide deformylase was found to be 24 nM.

Compound `CCCCC[C@H](CN(O)C=O)C(=O)N1CCC[C@H]1c1nc2ccccc2[nH]1` came in with an IC50 at Peptide deformylase of 15 nM.

At Peptide deformylase, `CCCC[C@H](CC(=O)O)C(=O)N1CCC[C@H]1c1nc2ccccc2[nH]1` had an IC50 of 202 nM.

Turning to `CCCC[C@H](CN(O)C=O)C(=O)N1CCC[C@H]1c1nc2ccccc2o1`, in experiment [1], it took 0.15 µg/mL (≈ 0.417 µM) to inhibit growth (MIC).

Compound `CCCC[C@H](C(=O)NO)C(=O)N1CCC[C@H]1c1nc2ccccc2o1` came in with an IC50 against Peptide deformylase of 49 nM. In other words, the double-digit nanomolar range.

`O=CN(O)C[C@@H](Cc1ccccc1)C(=O)N1CCC[C@H]1c1nc2ccccc2o1` returned an IC50 on Peptide deformylase of 161 nM.

For `O=CN(O)C[C@@H](CC1CC1)C(=O)N1CCC[C@H]1c1nc2ccccc2[nH]1`, in experiment [1], the minimum inhibitory concentration (MIC) is 0.05 µg/mL (≈ 0.14 µM). The compound also yielded a concentration for half-maximal inhibition (IC50) at Peptide deformylase of 8 nM.

`COc1c(N2CCNC(C)C2)c(F)cc2c(=O)c(C(=O)O)cn(C3CC3)c12` (centres undefined) [GATIFLOXACIN] returned a minimal inhibitory concentration (MIC) in experiment [1] of 0.07 µg/mL (≈ 0.186 µM).
